Source: US20250277012A1 (Protagonist Therapeutics, Inc., priority 2021, published 2025)
Positions of bridges follow the written chain, without caps; N, C: chain ends. Non-standard residues stand in square brackets, D forms with d. Residues, ends and D or L forms follow the SMILES beside them. Groups on a side chain read outwards from the residue. *: point of attachment. Glutaryl(2-isohexyl,5-OMe) = COC(=O)CCC(CCCC(C)C)C(=O)*; X1 = C[N+](C)(CCNC(=O)CCCCCCCCCCCCCCCCC(=O)O)CC(=O)*; C18 diacid = O=C(O)CCCCCCCCCCCCCCCCC(=O)*; dDip = N[C@@H](C(=O)O)C(c1ccccc1)c1ccccc1; Lys(Me3) = C[N+](C)(C)CCCC[C@H](N)C(=O)O; Dip = N[C@H](C(=O)O)C(c1ccccc1)c1ccccc1; Pro(3R-OH) = O=C(O)[C@H]1NCC[C@H]1O; Palmitoyl = CCCCCCCCCCCCCCCC(=O)*; NMeF = CN[C@@H](Cc1ccccc1)C(=O)O; NMeT = CN[C@H](C(=O)O)[C@@H](C)O; β3hF = N[C@H](CC(=O)O)Cc1ccccc1; NMeK = CN[C@@H](CCCCN)C(=O)O; Pen = CC(C)(S)[C@H](N)C(=O)O; dNMeK = CN[C@H](CCCCN)C(=O)O; Isovaleryl = CC(C)CC(=O)*; hCys = N[C@@H](CCS)C(=O)O; Dap = NC[C@H](N)C(=O)O; AEEA = NCCOCCOCC(=O)O; Ahx = NCCCCCC(=O)O

target: T1, ferroportin (Homo sapiens, UniProt Q9NP59); test: FPN activity assay: ferroportin-GFP internalization/degradation in HEK293 cells; type: cell-based; design: expressed in transfected cells; details: Table 6D; ferroportin-GFP internalization/degradation, at least 18 hours incubation; read-out: FPN IC50
T1 sequence (Q9NP59 1-571): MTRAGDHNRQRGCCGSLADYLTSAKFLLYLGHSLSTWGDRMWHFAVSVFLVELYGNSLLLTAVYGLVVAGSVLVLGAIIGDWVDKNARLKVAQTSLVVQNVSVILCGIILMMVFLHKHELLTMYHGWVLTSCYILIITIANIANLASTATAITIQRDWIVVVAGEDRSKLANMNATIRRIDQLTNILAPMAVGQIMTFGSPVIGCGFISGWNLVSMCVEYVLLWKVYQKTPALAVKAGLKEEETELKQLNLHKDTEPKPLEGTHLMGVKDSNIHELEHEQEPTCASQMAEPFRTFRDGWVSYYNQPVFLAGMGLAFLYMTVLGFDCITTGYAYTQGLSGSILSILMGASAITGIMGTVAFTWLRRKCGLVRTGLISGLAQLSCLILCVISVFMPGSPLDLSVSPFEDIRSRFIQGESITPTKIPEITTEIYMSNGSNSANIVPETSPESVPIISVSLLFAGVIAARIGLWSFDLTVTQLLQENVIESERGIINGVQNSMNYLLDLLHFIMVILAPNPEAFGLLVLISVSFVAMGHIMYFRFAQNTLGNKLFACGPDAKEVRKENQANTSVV
Protocol: Following internalization, the ferroporin protein is degraded.
A retro inverse peptide is a peptide with a reversed sequence in all D amino acids. An example is that Hy-Glu-Thr-His-NH2 becomes Hy-DHis-DThr-DGlu-NH2. The EC50 of these reference compounds for ferroportin internalization/degradation was determined according to the FPN activity assay described above. These peptides served as control standards.

| Compound | DC50 [nM] |
| --- | --- |
| CCCCCCCCCCCCCCCC(=O)NCC[N+](C)(C)CC(=O)NCCCC[C@H](NC(=O)[C@@H]1CSSC[C@H](NC(=O)[C@H](CCC(=O)OC)NC(=O)CC(C)C)C(=O)N[C@@H](Cc2c[nH]cn2)C(=O)N[C@@H](C(c2ccccc2)c2ccccc2)C(=O)N1)C(=O)NCCCCC [compound 123] | > 500 |
| CCCCCCCCCCCCCCCC(=O)NCC[N+](C)(C)CC(=O)NCCCC[C@H](NC(=O)[C@@H]1CSSC[C@H](NC(=O)[C@H](CCC(=O)O)NC(=O)CC(C)C)C(=O)N[C@@H](Cc2c[nH]cn2)C(=O)N[C@@H](C(c2ccccc2)c2ccccc2)C(=O)N1)C(=O)NCCCCC [compound 124] | 100 to 500 |
| CCCCCCCCCCCCCCCC(=O)NCCCCCC(=O)NCCCC[C@H](NC(=O)C[C@H](Cc1ccccc1)NC(=O)[C@@H](CCCCN)NC(=O)[C@@H](NC(=O)[C@@H]1CSSC[C@H](NC(=O)[C@H](CCC(=O)O)NC(=O)CC(C)C)C(=O)N[C@@H](Cc2c[nH]cn2)C(=O)N[C@@H](C(c2ccccc2)c2ccccc2)C(=O)N2CCC[C@H]2C(=O)N1)[C@@H](C)CC)C(=O)N[C@H](CCCCN)C(N)=O [compound 134] (Isovaleryl-ECH[Dip]PCI[dK][β3hF]K([Ahx-Palmitoyl])[dK]-NH2; disulfide 2-6) | 10 to 100 |

same assay, conditions: Table 6E; ferroportin-GFP internalization/degradation, at least 18 hours incubation; read-out: FPN IC50

| Compound | DC50 [nM] |
| --- | --- |
| COC(=O)CCC(CCCC(C)C)C(=O)N[C@H](C(=O)N[C@@H](Cc1c[nH]cn1)C(=O)N[C@H](C(=O)N1CCC[C@H]1C(=O)N[C@H]1CSSC[C@@H](C(=O)N[C@H](CCCCN)C(=O)N[C@H](C(=O)N[C@H](CCCCN)C(N)=O)C(c2ccccc2)c2ccccc2)NC1=O)C(c1ccccc1)c1ccccc1)[C@@H](C)O (stereo partly shown) [compound 135] ({Glutaryl(2-isohexyl,5-OMe)}-TH[Dip]PCC[dK][Dip][dK]-NH2; disulfide 5-6) | 100 to 500 |
| CC(C)CC(=O)N[C@@H](CCC(=O)O)C(=O)N[C@H](C(=O)N[C@@H](Cc1c[nH]cn1)C(=O)N[C@H](C(=O)N1CCC[C@H]1C(=O)N[C@H]1CSSC[C@@H](C(=O)N[C@@H](CCCC[N+](C)(C)C)C(=O)N[C@@H](C(N)=O)C(c2ccccc2)c2ccccc2)NC1=O)C(c1ccccc1)c1ccccc1)[C@@H](C)O [compound 140] (Isovaleryl-ETH[Dip]PCC[Lys(Me3)][dDip]-NH2; disulfide 6-7) | 10 to 100 |
| CC(C)CC(=O)N[C@@H](CCC(=O)O)C(=O)N[C@H](C(=O)N[C@@H](Cc1c[nH]cn1)C(=O)N[C@H](C(=O)N1CCC[C@H]1C(=O)N[C@H]1CSSC[C@@H](C(=O)N[C@@H](CCCC[N+](C)(C)C)C(=O)N[C@H](C(N)=O)C(c2ccccc2)c2ccccc2)NC1=O)C(c1ccccc1)c1ccccc1)[C@@H](C)O [compound 141] (Isovaleryl-ETH[Dip]PCC[Lys(Me3)][Dip]-NH2; disulfide 6-7) | 10 to 100 |
| CCCCCCCCCCCCCCCC(=O)NCCCCCC(=O)NCCCC[C@@H](C(=O)N[C@H](C(=O)N[C@H](CCCCN)C(N)=O)C(c1ccccc1)c1ccccc1)N(C)C(=O)[C@@H]1CSSC[C@H](NC(=O)[C@@H]2CCCN2C(=O)[C@@H](NC(=O)[C@H](Cc2c[nH]cn2)NC(=O)[C@@H]2[C@H](O)CCN2C(=O)[C@H](CCC(=O)O)NC(=O)CC(C)C)C(c2ccccc2)c2ccccc2)C(=O)N1 [compound 174] (Isovaleryl-E[Pro(3R-OH)]H[Dip]PCC[NMeK]([Ahx-Palmitoyl])[Dip][dK]-NH2; disulfide 6-7) | 10 to 100 |
| COC(=O)CC[C@H](NC(=O)CC(C)C)C(=O)N(C)[C@H](C(=O)N[C@@H](Cc1c[nH]cn1)C(=O)N[C@H](C(=O)N1CCC[C@H]1C(=O)N[C@H]1CSSC[C@@H](C(=O)N(C)[C@@H](Cc2ccccc2)C(N)=O)NC1=O)C(c1ccccc1)c1ccccc1)[C@@H](C)O [compound 184] (Isovaleryl-E(OMe)[NMeT]H[Dip]PCC[NMeF]-NH2; disulfide 6-7) | > 500 |
| COC(=O)CC[C@H](NC(=O)CC(C)C)C(=O)N(C)[C@H](C(=O)N[C@@H](Cc1c[nH]cn1)C(=O)N[C@H](C(=O)N1CCC[C@H]1C(=O)N[C@H]1CSSC[C@@H](C(=O)N(C)[C@@H](CCCCNC(=O)C[N+](C)(C)CCNC(=O)CCCCCCCCCCCCCCCCC(=O)O)C(=O)N(C)[C@@H](Cc2ccccc2)C(N)=O)NC1=O)C(c1ccccc1)c1ccccc1)[C@@H](C)O [compound 185] (Isovaleryl-E(OMe)[NMeT]H[Dip]PCC[NMeK](X1)[NMeF]-NH2; disulfide 6-7) | > 500 |

same assay, conditions: ferroportin-GFP HEK293 cells, at least 18 hours; read-out: FPN IC50

| Compound | DC50 [nM] |
| --- | --- |
| CCCCCCCCCCCCCCCC(=O)NCCCCCC(=O)NCCCC[C@H](NC(=O)C[C@H](Cc1ccccc1)NC(=O)[C@H]1NC(=O)[C@H]([C@@H](C)CC)NC(=O)[C@H](C)NC(=O)[C@@H]2CCCN2C(=O)[C@H](C(c2ccccc2)c2ccccc2)NC(=O)[C@H](Cc2c[nH]cn2)NC(=O)[C@H]([C@@H](C)O)NC(=O)[C@@H](NC(=O)CC(C)C)CCSSC1(C)C)C(=O)N[C@H](CCCCN)C(N)=O [compound 109] (Isovaleryl-[hCys]TH[Dip]PAI[Pen][β3hF]K([Ahx-Palmitoyl])[dK]-NH2; disulfide 1-8) | 10 to 100 |
| CCCCCCCCCCCCCCCC(=O)NCCCCCC(=O)NCCCC[C@H](NC(=O)C[C@H](Cc1ccccc1)NC(=O)[C@@H]1CSSCC[C@H](NC(=O)CC(C)C)C(=O)N[C@@H]([C@@H](C)O)C(=O)N[C@@H](Cc2cnc[nH]2)C(=O)N[C@@H](C(c2ccccc2)c2ccccc2)C(=O)N2CCC[C@H]2C(=O)N[C@@H](C)C(=O)N[C@@H]([C@@H](C)CC)C(=O)N1)C(=O)N[C@H](CCCCN)C(N)=O [compound 110] (Isovaleryl-[hCys]TH[Dip]PAIC[β3hF]K([Ahx-Palmitoyl])[dK]-NH2; disulfide 1-8) | 1 to 10 |
| CCCCCCCCCCCCCCCC(=O)NCCCCCC(=O)NCCCC[C@H](NC(=O)C[C@H](Cc1ccccc1)NC(=O)[C@@H]1CCSSCC[C@H](NC(=O)CC(C)C)C(=O)N[C@@H]([C@@H](C)O)C(=O)N[C@@H](Cc2cnc[nH]2)C(=O)N[C@@H](C(c2ccccc2)c2ccccc2)C(=O)N2CCC[C@H]2C(=O)N[C@@H](C)C(=O)N[C@@H]([C@@H](C)CC)C(=O)N1)C(=O)N[C@H](CCCCN)C(N)=O [compound 111] (Isovaleryl-[hCys]TH[Dip]PAI[hCys][β3hF]K([Ahx-Palmitoyl])[dK]-NH2; disulfide 1-8) | 10 to 100 |

same assay, conditions: ferroportin-GFP internalization/degradation, HEK293 cells; Table 6E; read-out: FPN IC50

| Compound | DC50 [nM] |
| --- | --- |
| CC(=O)NCCCC[C@H](C(N)=O)N(C)C(=O)C[C@H](Cc1ccccc1)NC(=O)[C@H](CCCCNC(=O)COCCOCCNC(=O)COCCOCCNC(=O)[C@H](CN)NC(=O)CCCCCCCCCCCCCCCCC(=O)O)N(C)C(=O)[C@@H]1CSSC[C@H](NC(=O)[C@@H]2CCCN2C(=O)[C@@H](NC(=O)[C@H](Cc2c[nH]cn2)NC(=O)[C@@H](NC(=O)[C@H](CCC(=O)O)NC(=O)CC(C)C)[C@@H](C)O)C(c2ccccc2)c2ccccc2)C(=O)N1 [compound 267] (Isovaleryl-ETH[Dip]PCC[NMeK]([AEEA-AEEA-Dap-C18 diacid])[β3hF][dNMeK](Ac)-NH2; disulfide 6-7) | 100 to 500 |
| CC(C)CC(=O)N[C@@H](CCC(=O)O)C(=O)N[C@H](C(=O)N[C@@H](Cc1c[nH]cn1)C(=O)N[C@H](C(=O)N1CCC[C@H]1C(=O)N[C@@H]1C(=O)N[C@H](C(=O)N(C)[C@@H](CCCCNC(=O)COCCOCCNC(=O)COCCOCCNC(=O)[C@H](CN)NC(=O)CCCCCCCCCCCCCCCCC(=O)O)C(=O)N[C@H](CC(=O)N[C@H](CCCCN)C(N)=O)Cc2ccccc2)CSSC1(C)C)C(c1ccccc1)c1ccccc1)[C@@H](C)O [compound 271] (Isovaleryl-ETH[Dip]P[Pen]C[NMeK]([AEEA-AEEA-Dap-C18 diacid])[β3hF][dK]-NH2; disulfide 6-7) | 10 to 100 |
| CC(C)CC(=O)N[C@@H](CCC(=O)O)C(=O)N[C@H](C(=O)N[C@@H](Cc1c[nH]cn1)C(=O)N[C@H](C(=O)N1CCC[C@H]1C(=O)N[C@@H]1C(=O)N[C@H](C(=O)N(C)[C@@H](CCCCNC(=O)COCCOCCNC(=O)COCCOCCNC(=O)[C@H](CN)NC(=O)CCCCCCCCCCCCCCCCC(=O)O)C(=O)N[C@H](CC(=O)N[C@H](CCCCN)C(N)=O)Cc2ccccc2)C(C)(C)SSC1(C)C)C(c1ccccc1)c1ccccc1)[C@@H](C)O [compound 273] (Isovaleryl-ETH[Dip]P[Pen][Pen][NMeK]([AEEA-AEEA-Dap-C18 diacid])[β3hF][dK]-NH2; disulfide 6-7) | 100 to 500 |
| CC(C)CC(=O)N[C@@H](CCC(=O)O)C(=O)N[C@H](C(=O)N[C@@H](Cc1c[nH]cn1)C(=O)N[C@H](C(=O)N1CCC[C@H]1C(=O)N[C@@H]1C(=O)N[C@H](C(=O)N[C@@H](CCCCNC(=O)COCCOCCNC(=O)COCCOCCNC(=O)[C@H](CN)NC(=O)CCCCCCCCCCCCCCCCC(=O)O)C(=O)N[C@H](CC(=O)N[C@H](CCCCN)C(N)=O)Cc2ccccc2)C(C)(C)SSC1(C)C)C(c1ccccc1)c1ccccc1)[C@@H](C)O [compound 274] (Isovaleryl-ETH[Dip]P[Pen][Pen]K([AEEA-AEEA-Dap-C18 diacid])[β3hF][dK]-NH2; disulfide 6-7) | 10 to 100 |
